Results: patent US10160762B2, “6-alkyl dihydropyrazolopyrimidinone compounds as PDE2 inhibitors” (Merck Sharp & Dohme Corp., priority 2015, dated 2018)
Like-named read-outs stand apart in the source and are kept apart here.

Experiments:
other PDE isoforms = conditions: reported in Brandon et al., Annual Reports in Medicinal Chemistry 42, 2007; cited from earlier work
[1] = reported in Brandon et al., Annual Reports in Medicinal Chemistry 42, 2007; cited from earlier work
Rhesus PDE2A3 = target: T1, Rhesus PDE2A3 (Macaca mulatta, UniProt B3VTJ2); test: PDE2 fluorescence polarization (IMAP FP) inhibition assay, rhesus PDE2A3; format: biochemical, rhesus macaque
T1 construct: made in house; host or cells: AD293 cells, transient transfection; supernatant of sonicated lysate
T1 sequence (B3VTJ2 1-941): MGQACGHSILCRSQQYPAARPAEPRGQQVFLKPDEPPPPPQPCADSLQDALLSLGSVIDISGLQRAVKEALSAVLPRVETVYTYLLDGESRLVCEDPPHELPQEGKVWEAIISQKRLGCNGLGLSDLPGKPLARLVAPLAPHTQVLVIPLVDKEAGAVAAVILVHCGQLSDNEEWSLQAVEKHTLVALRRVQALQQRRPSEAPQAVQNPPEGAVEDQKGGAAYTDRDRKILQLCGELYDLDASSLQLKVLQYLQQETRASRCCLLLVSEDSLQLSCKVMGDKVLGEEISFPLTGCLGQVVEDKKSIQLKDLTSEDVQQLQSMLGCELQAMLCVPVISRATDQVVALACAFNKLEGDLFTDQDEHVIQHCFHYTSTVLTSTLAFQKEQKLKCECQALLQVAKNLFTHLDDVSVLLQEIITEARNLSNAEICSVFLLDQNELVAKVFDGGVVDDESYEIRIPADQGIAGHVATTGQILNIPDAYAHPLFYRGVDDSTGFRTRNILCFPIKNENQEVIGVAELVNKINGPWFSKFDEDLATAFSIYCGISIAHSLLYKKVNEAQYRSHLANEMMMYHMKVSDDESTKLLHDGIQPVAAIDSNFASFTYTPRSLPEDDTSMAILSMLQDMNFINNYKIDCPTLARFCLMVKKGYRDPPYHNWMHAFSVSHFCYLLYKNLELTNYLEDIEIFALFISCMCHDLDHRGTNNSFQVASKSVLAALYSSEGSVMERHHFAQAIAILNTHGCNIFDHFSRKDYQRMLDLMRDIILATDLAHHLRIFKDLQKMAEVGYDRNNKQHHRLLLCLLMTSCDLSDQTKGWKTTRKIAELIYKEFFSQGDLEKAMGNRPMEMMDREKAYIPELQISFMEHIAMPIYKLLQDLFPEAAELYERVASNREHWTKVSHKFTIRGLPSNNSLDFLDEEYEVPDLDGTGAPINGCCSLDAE
Protocol: The activity of the compounds in accordance with the present invention as PDE2 inhibitors may be readily determined using a fluorescence polarization (FP) methodology (Huang, W., et al., J. Biomol Screen, 2002, 7: 215).
The PDE2 inhibitory activity of the compounds of the present invention was determined in accordance with the following experimental method. Rhesus PDE2A3 was amplified from rhesus macaque brain cDNA (Biochain Institute, Hayward, Calif.) using primers based on human PDE2A sequence (accession NM_002599.3) where the forward primer containing a Kozak consensus was 5′-[…]-3′ and the reverse primer was 5′-[…]-3′. Amplification with Easy-A High-Fidelity PCR cloning enzyme (Stratagene, La Jolla, Calif.) was 95° C. for 2 minutes followed by thirty three cycles of 95° C. for 40 seconds, 52° C. for 30 seconds, and 72° C. for 2 minutes 48 seconds. Final extension was 72° C. for 7 minutes. The PCR product was TA cloned into pcDNA3.3-TOPO (Invitrogen, Carlsbad, Calif.) according to standard protocol. A consensus sequence was developed from multiple clones and then deposited into GenBank (EU812167). AD293 cells (Stratagene, La Jolla, Calif.) with 70-80% confluency were transiently transfected with rhesus PDE2A3/pcDNA3.3-TOPO using Lipofectamine 2000 according to manufacturer specifications (Invitrogen, Carlsbad, Calif.). Cells were harvested 48 hours post-transfection and lysed by sonication (setting 3, 10×5 sec pulses) in a buffer containing 20 mM HEPES pH 7.4, 1 mM EDTA and Complete Protease Inhibitor Cocktail Tablets (Roche, Indianapolis, Ind.). Lysate was collected by centrifugation at 75,000×g for 20 minutes at 4° C. and supernatant utilized for evaluation of PDE2 activity. The fluorescence polarization assay for cyclic nucleotide phosphodiesterases was performed using an IMAP® FP kit supplied by Molecular Devices, Sunnyvale, Calif. (product #R8139). […] Assays were performed at room temperature in 384-well microtiter plates with an incubation volume of 20.2 μL. Solutions of test compounds were prepared in DMSO and serially diluted with DMSO to yield 8 μL of each of 10 solutions differing by 3-fold in concentration, at 32 serial dilutions per plate. […] 0% of inhibition is determined by using DMSO (1% final concentrations).
A Labcyte Echo 555 (Labcyte, Sunnyvale, Calif.) is used to dispense 200 nL from each well of the titration plate to the 384 well assay plate. Ten microliters of a solution of enzyme (1/2000 final dilution from aliquots; sufficient to produce 20% substrate conversion) was added to the assay plate. Next 10 uL of a separate solution of the substrate FAM-labeled cAMP (50 nM final concentration product # R7506 from Molecular Devices) and the activator cGMP (1 uM final concentration), prepared in the assay buffer (10 mM Tris HCl, pH 7.2, 10 mM MgCl2, 0.05% NaN3 0.01% Tween-20, and 1 mM DTT) was added to the assay plate and shaken to mix. The reaction is allowed to proceed at room temperature for 60 minutes. A binding solution is then made from the kit components, comprised of 80% Solution A, 20% Solution B and binding reagent at a volume of 1/600 the total binding solution. The enzymatic reaction is stopped by addition of 60 μL of the binding solution to each well of the assay plates and the plates are sealed and shaken for 30 seconds. The plate was incubated at room temperature for at least one hour prior to determining the fluorescence polarization (FP). The parallel and perpendicular fluorescence of each well of the plate was measured using a Tecan Genios Pro plate reader (Tecan, Switzerland) or Perkin Elmer EnVision™ plate reader (Waltham, Mass.). Fluorescence polarization (mP) was calculated from the parallel (S) and perpendicular (P) fluorescence of each sample well and the analogous values for the median control well, containing only substrate (So and Po), using the following equation: Polarization(mP)=1000*(S/So−P/Po)/(S/So+P/Po).

[2] = Lab B, read-out: Rhesus PDE2 Ki (nM) Lab B

Ki (Rhesus PDE2A3; [2]) [nM]	SMILES	also measured
	COc1ccc(Cc2nn3c([C@@H](CCCc4ccccc4)[C@@H](C)O)nc(C)c3c(=O)[nH]2)cc1OC [BAY 60-7550, Bay 60-7550]	potency at other PDE isoforms (other PDE isoforms): significant potency; brain penetration [1]: limited
160	Cc1nc2c(c(CO)nn2C(c2ccc(C(F)(F)F)cc2)C2(C)CC2)c(=O)[nH]1 (single isomer, unassigned) [Example 25, (S)- or (R)-3-(Hydroxymethyl)-6-methyl-1-((1-methylcyclopropyl)(4-(trifluoromethyl)phenyl)methyl)-1H-pyrazolo[3,4-d]pyrimidin-4(5H)-one]	
768	COCc1nn(C(C)c2ccc(C(F)(F)F)cc2)c2nc(C)[nH]c(=O)c12 (single isomer, unassigned) [Example 278]	
	COCCc1nc2c(c(C)nn2C(C)c2ccc(C(F)(F)F)cc2)c(=O)[nH]1 (stereo not shown) [Example 34, 6-(2-Methoxyethyl)-3-methyl-1-(1-(4-(trifluoromethyl)phenyl)ethyl)-1H-pyrazolo[3,4-d]pyrimidin-4(5H)-one]	Ki (Rhesus PDE2A3; Lab A, read-out: Rhesus PDE2 Ki (nM) Lab A): 267 nM
330	Cc1nc2c(c(CO)nn2C(C)c2ccc(S(F)(F)(F)(F)F)cc2)c(=O)[nH]1 (single isomer, unassigned) [Example 76]	
~14500	Cc1nc2c(c(CN)nn2C(C)c2ccc(C(F)(F)F)cc2)c(=O)[nH]1 (single isomer, unassigned) [Example 274]	
436	Cc1nc2c(c(CO)nn2C(c2ccc(C(F)(F)F)c(F)c2)C(C)C)c(=O)[nH]1 (single isomer, unassigned) [Example 86, (R)- or (S)-1-(1-(3-Fluoro-4-(trifluoromethyl)phenyl)-2-methylpropyl)-3-(hydroxymethyl)-6-methyl-1H-pyrazolo[3,4-d]pyrimidin-4(5H)-one]	
678	Cc1nc2c(c(CF)nn2C(c2ccc(C(F)(F)F)cc2)C(C)(C)C)c(=O)[nH]1 (single isomer, unassigned) [Example 233, (R)- or (S)-1-(2,2-Dimethyl-1-(4-(trifluoromethyl)phenyl)propyl)-3-(fluoromethyl)-6-methyl-1H-pyrazolo[3,4-d]pyrimidin-4(5H)-one]	
387	CC(c1ccc(C(F)(F)F)cc1)n1nc(COCc2ccccc2)c2c(=O)[nH]c(C(F)F)nc21 (stereo not shown) [Example 283, 3-((Benzyloxy)methyl)-6-(difluoromethyl)-1-(1-(4-(trifluoromethyl)phenyl)ethyl)-1H-pyrazolo[3,4-d]pyrimidin-4(5H)-one]	
